Measured values taken from the RepoRT retention time repository (doi:10.1016/j.jchromb.2020.122105).

Assays:
Details in all cases: stereoisomer not certain
[1] = RP, Waters CORTECS T3, 100 × 2.1 mm, 2.7 µm, 0.3 mL/min, estimated dead time 0.73 min; A: water + 0.1% formic acid, pH 3; B: methanol + 0.1% formic acid, pH 3; gradient (min/%B) 0/0 1/0 6/5 30/100 35/100 35.1/0 40/0
[2] = RP, Waters CORTECS T3, 100 × 2.1 mm, 2.7 µm, 0.25 mL/min, estimated dead time 0.88 min; A: water + 0.1% formic acid, pH 3; B: methanol + 0.1% formic acid, pH 3; gradient (min/%B) 0/5 5/5 25/95 25.1/100 35/100 35.1/5 45/5
[3] = RP, Waters CORTECS T3, 100 × 2.1 mm, 2.7 µm, 0.2 mL/min, estimated dead time 1.1 min; A: water + 0.1% formic acid, pH 3; B: methanol + 0.1% formic acid, pH 3; gradient (min/%B) 0/5 5/5 25/95 25.1/100 35/100 35.1/5 45/5
[4] = RP, Waters ACQUITY UPLC BEH C18, 100 × 2.1 mm, 1.7 µm, 0.2 mL/min, estimated dead time 1.1 min; A: water + 0.1% formic acid, pH 3; B: methanol + 0.1% formic acid, pH 3; gradient (min/%B) 0/5 5/5 25/100 30/100 30.1/5 35/5
[5] = RP, Waters CORTECS T3, 100 × 2.1 mm, 2.7 µm, 0.3 mL/min, estimated dead time 0.73 min; A: water + 0.1% formic acid, pH 3; B: methanol + 0.1% formic acid, pH 3; gradient (min/%B) 0/0 5/0 25/100 30/100 30.1/0 35/0
[6] = RP, Waters CORTECS T3, 100 × 2.1 mm, 2.7 µm, 0.25 mL/min, estimated dead time 0.88 min; A: water + 0.1% formic acid, pH 3; B: methanol + 0.1% formic acid, pH 3; gradient (min/%B) 0/0 1/0 6/5 30/100 35/100 35.1/0 40/0
[7] = RP, Waters ACQUITY UPLC BEH C18, 100 × 2.1 mm, 1.7 µm, 0.1 mL/min, estimated dead time 2.2 min; A: water + 0.1% formic acid, pH 3; B: methanol + 0.1% formic acid, pH 3; gradient (min/%B) 0/5 5/5 25/95 25.1/100 35/100 35.1/5 45/5
[8] = RP, Waters CORTECS T3, 100 × 2.1 mm, 2.7 µm, 0.3 mL/min, estimated dead time 0.73 min; A: water + 0.1% formic acid, pH 3; B: methanol + 0.1% formic acid, pH 3; gradient (min/%B) 0/5 5/5 25/95 25.1/100 35/100 35.1/5 45/5
[9] = RP, Waters CORTECS T3, 100 × 2.1 mm, 2.7 µm, 0.2 mL/min, estimated dead time 1.1 min; A: water + 0.1% formic acid, pH 3; B: methanol + 0.1% formic acid, pH 3; gradient (min/%B) 0/0 1/0 6/5 30/100 35/100 35.1/0 40/0
[10] = RP, Waters CORTECS T3, 100 × 2.1 mm, 2.7 µm, 0.15 mL/min, estimated dead time 1.5 min; A: water + 0.1% formic acid, pH 3; B: methanol + 0.1% formic acid, pH 3; gradient (min/%B) 0/0 1/0 6/5 30/100 35/100 35.1/0 40/0
[11] = RP, Thermo Scientific Hypercarb, 150 × 2.1 mm, 5 µm, 0.1 mL/min, estimated dead time 3.3 min; A: water + 0.1% formic acid, pH 3; B: methanol + 0.1% formic acid, pH 3; gradient (min/%B) 0/5 5/5 20/100 35/100 35.1/5 45/5
[12] = RP, Waters ACQUITY UPLC BEH C18, 100 × 2.1 mm, 1.7 µm, 0.2 mL/min, estimated dead time 1.1 min; A: water + 0.025% formic acid + 20 mM ammonium acetate + 0.055% ammonium hydroxide, pH 7; B: methanol; gradient (min/%B) 0/5 5/5 25/100 30/100 30.1/5 35/5
[13] = RP, Waters CORTECS T3, 100 × 2.1 mm, 2.7 µm, 0.3 mL/min, estimated dead time 0.73 min; A: water + 0.1% formic acid, pH 3; B: methanol + 0.1% formic acid, pH 3; gradient (min/%B) 0/0 5/0 25/100 30/100 30.1/0 35/0; remark: listed apart in the source
[14] = RP, Waters ACQUITY UPLC BEH C18, 100 × 2.1 mm, 1.7 µm, 0.1 mL/min, estimated dead time 2.2 min; A: water + 0.045% formic acid + 0.11% ammonium hydroxide, pH 7; B: methanol; gradient (min/%B) 0/5 5/5 25/95 25.1/100 35/100 35.1/5 45/5
[15] = RP, Waters CORTECS T3, 100 × 2.1 mm, 2.7 µm, 0.3 mL/min, estimated dead time 0.73 min; A: water + 0.1% formic acid, pH 3; B: methanol + 0.1% formic acid, pH 3; gradient (min/%B) 0/0 1/0 6/5 30/100 35/100 35.1/0 40/0; remark: listed apart in the source
[16] = RP, Waters CORTECS T3, 100 × 2.1 mm, 2.7 µm, 0.2 mL/min, estimated dead time 1.1 min; A: water + 0.045% formic acid + 0.11% ammonium hydroxide, pH 7; B: methanol; gradient (min/%B) 0/5 5/5 25/95 25.1/100 35/100 35.1/5 45/5
[17] = RP, Waters CORTECS T3, 100 × 2.1 mm, 2.7 µm, 0.1 mL/min, estimated dead time 2.2 min; A: water + 0.1% formic acid, pH 3; B: methanol + 0.1% formic acid, pH 3; gradient (min/%B) 0/5 5/5 25/95 25.1/100 35/100 35.1/5 45/5
[18] = RP, Waters ACQUITY UPLC BEH C18, 100 × 2.1 mm, 1.7 µm, 0.1 mL/min, estimated dead time 2.2 min; A: water + 0.1% formic acid, pH 3; B: methanol + 0.1% formic acid, pH 3; gradient (min/%B) 0/5 5/5 25/100 30/100 30.1/5 35/5
[19] = RP, Waters CORTECS T3, 100 × 2.1 mm, 2.7 µm, 0.2 mL/min, estimated dead time 1.1 min; A: water + 0.1% formic acid, pH 3; B: methanol + 0.1% formic acid, pH 3; gradient (min/%B) 0/0 1/0 6/5 30/100 35/100 35.1/0 40/0; remark: listed apart in the source
[20] = RP, Waters CORTECS T3, 100 × 2.1 mm, 2.7 µm, 0.3 mL/min, estimated dead time 0.73 min; A: water + 0.1% formic acid, pH 3; B: methanol + 0.1% formic acid, pH 3; gradient (min/%B) 0/5 5/5 25/100 30/100 30.1/5 35/5
[21] = RP, Waters ACQUITY UPLC BEH C18, 100 × 2.1 mm, 1.7 µm, 0.1 mL/min, estimated dead time 2.2 min; A: water + 0.1% formic acid, pH 3; B: methanol + 0.1% formic acid, pH 3; gradient (min/%B) 0/5 5/5 25/95 25.1/100 35/100 35.1/5 45/5; remark: listed apart in the source
[22] = RP, Waters CORTECS T3, 100 × 2.1 mm, 2.7 µm, 0.1 mL/min, estimated dead time 2.2 min; A: water + 0.1% formic acid, pH 3; B: methanol + 0.1% formic acid, pH 3; gradient (min/%B) 0/0 1/0 6/5 30/100 35/100 35.1/0 40/0

In the case of `Nc1nc2c(ncn2C2OC(COP(=O)(O)O)C(O)C2O)c(=O)[nH]1` (centres undefined) [GUANOSINE 5'-MONOPHOSPHATE], the LC retention time [1] is reported as 0.92 min, the LC retention time [2] is reported as 1.08 min and the LC retention time [3] is reported as 2.67 min. The LC retention time [4] was 1.79 min, the LC retention time [5] was 0.89 min and the LC retention time [6] was 1.09 min. It also gave an LC retention time [7] of 2.84 min, an LC retention time [8] of 0.9 min and an LC retention time [9] of 1.35 min.
In the case of `NC(=O)c1cccnc1` [NICOTINAMIDE], the LC retention time [10] is reported as 3.31 min, the LC retention time [11] is reported as 24.4 min and the LC retention time [12] is reported as 3.89 min. The LC retention time [13] was 1.63 min, the LC retention time [14] was 6.91 min and the LC retention time [15] was 1.57 min. It also gave an LC retention time [16] of 3.68 min, an LC retention time [17] of 3.38 min and an LC retention time [6] of 1.9 min. The LC retention time [7] was 2.69 min, the LC retention time [8] was 1.17 min and the LC retention time [18] was 3.66 min. The LC retention time [19] was 2.36 min and the LC retention time [20] was 1.2 min.
With `NCCc1c[nH]c2ccc(O)cc12` [SEROTONIN] the LC retention time [11] was 14.4 min, the LC retention time [21] was 2.66 min and the LC retention time [14] was 13.9 min. The LC retention time [16] was 10.7 min and the LC retention time [18] was 2.74 min.
Work on `C[N+](C)(C)CCOP(=O)([O-])OCC(O)CO` (centres undefined) [SN-GLYCERO-3-PHOSPHOCHOLINE] yielded an LC retention time [11] of 5.02 min and an LC retention time [7] of 2.66 min.
Compound `NC(Cc1cc(I)c(Oc2cc(I)c(O)c(I)c2)c(I)c1)C(=O)O` (centres undefined) [THYROXINE] has an LC retention time [10] of 23.9 min, an LC retention time [21] of 23.5 min and an LC retention time [13] of 18.9 min. For the same compound, the LC retention time [15] was 21.6 min, the LC retention time [6] was 22.1 min and the LC retention time [8] was 19.1 min. The LC retention time [18] was 22.7 min, the LC retention time [19] was 22.8 min and the LC retention time [22] was 20.3 min. It also gave an LC retention time [20] of 18.5 min.
`O=c1cc[nH]c(=O)[nH]1` [URACIL] showed an LC retention time [10] of 1.85 min, an LC retention time [11] of 21.2 min and an LC retention time [13] of 0.91 min. It also gave an LC retention time [17] of 2.68 min, an LC retention time [6] of 1.11 min and an LC retention time [7] of 2.69 min. For the same compound, the LC retention time [18] was 2.76 min, the LC retention time [19] was 1.36 min and the LC retention time [20] was 0.95 min.
